Source: patent US11980209B2, “Consumables” (GIVAUDAN SA, priority 2007, dated 2024)

Legend:
[1] = system: perceived sweet taste (sweet sensitive panelists); assay: Direct comparison of 100 ppm trilobatin in 7% sucrose with 7.5% sucrose solution (Example 2a); assay type: in vivo, human; details: all of 8 sweet sensitive panelists
[2] = system: perceived sweetness (sweet sensitive panelists); assay: Sweetness enhancement by trilobatin in yoghurt (Example 9); assay type: in vivo, human
Description: Trilobatin was tested by 6 sweet sensitive panelists in plain nonfat yoghurt.
Samples of 62.5 ppm, 125 ppm, and 500 ppm trilobatin in yoghurt sweetened with 5% sucrose were compared by panelists to a 5% sucrose sweetened yoghurt and a 7% sucrose sweetened yoghurt sample; the results are indicated in the table below.

[3] = 62.5 ppm trilobatin in yoghurt sweetened with 5% sucrose
[4] = 125 ppm trilobatin in yoghurt sweetened with 5% sucrose
[5] = 500 ppm trilobatin in 5% sucrose yoghurt

O=C(CCc1ccc(O)cc1)c1c(O)cc(O[C@@H]2O[C@H](CO)[C@@H](O)[C@H](O)[C@H]2O)cc1O [trilobatin, 1-[4-(beta-D-glucopyranosyloxy)-2,6-dihydroxyphenyl]-3-(4-hydroxyphenyl)-1-propanone]
taste in direct comparison with 7.5% sucrose solution [1]: significantly sweeter | sweetness trilobatin compared to 5% sucrose sample [2, 3]: + sweeter | sweetness trilobatin compared to 7% sucrose sample [2, 3]: less sweet | sweetness trilobatin compared to 5% sucrose sample [2, 4]: ++ sweeter | sweetness trilobatin compared to 7% sucrose sample [2, 4]: less sweet | sucrose level that the 5% sucrose sample tastes like [2, 5]: 7% | sweetness enhancement effect equivalent to added sucrose [2, 5]: 1 % sucrose
